Experimental data published in ChEMBL document CHEMBL4308864, “Targeting tyrosine kinase: Development of acridone - pyrrole - oxindole hybrids against human breast cancer” (2019).

Legend:
Type in all cases: functional
T47D = assay: Growth inhibition of human T47D cells at 10^-5 M incubated for 48 hrs by sulforhodamine B assay relative to control; conditions: read-out: GI
MDA-MB-468 = assay: Growth inhibition of human MDA-MB-468 cells at 10^-5 M incubated for 48 hrs by sulforhodamine B assay relative to control; conditions: MDA-MB-468, 48 h, read-out: GI
MCF7 = assay: Growth inhibition of human MCF7 cells at 10^-5 M incubated for 48 hrs by sulforhodamine B assay relative to control; conditions: MCF7, 48 h, read-out: GI

O=C1/C(=C\c2cccn2Cc2ccccc2)c2ccccc2N1c1c(Cl)cccc1Cl
inhibition of growth at 10 µM (T47D): 100%
inhibition of growth at 10 µM (MDA-MB-468): 100%
inhibition of growth at 10 µM (MCF7): 93%
